Data on twelve compounds can be found in ChEMBL document CHEMBL1201862, “PubChem BioAssay data set” (2004).

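Cultured in 96-well plates, cells were exposed to test compound for 48 hours across five concentrations. Abbreviation: GI50, concentration required for 50% inhibition of growth.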 The source made the active and inactive calls. Cut-off read from the data, not from the text of the source: active = GI50 up to about 1.1 µM and inactive = higher.

Among the test systems are ACHN; DMS-114; HL-60; HOP-18; KM12; M19-MEL; NCI-H226; NCI-H522; OVCAR-4; OVCAR-5; SK-MEL-28; SK-MEL-5; SW-620; U-251; UACC-257; LXFL 529; SF-268; MDA-MB-231; PC-3; T47D.
Holding throughout (assay): NCI-60 cell line screen, 48 h

Turning to `CN/C=C(/c1ccc(OC)cc1)C(O)c1ccc(OC)c(OC)c1` (stereo not drawn), the GI50 with ACHN, in the assay with DMS-114, in the assay with HL-60, in the assay with HOP-18, with KM12 and in the assay with M19-MEL was > 100 µM (inactive) throughout. For the same compound, the GI50 in the assay with NCI-H226, with NCI-H522, with OVCAR-4, with OVCAR-5, in the assay on SK-MEL-28 and in the assay with SK-MEL-5 was > 100 µM (inactive) in each case. For the same compound, the GI50 in the assay with SW-620, in the assay on U-251 and with UACC-257 was > 100 µM (inactive) each time.
Consider `O=C(O/N=C1/CCCC/C1=C\c1ccccc1)c1ccc(Cl)c(Cl)c1`, for which the GI50 in the assay with ACHN is 15.5 µM (inactive); with HL-60, 14.5 µM (inactive); in the assay on HOP-18 it was > 100 µM (inactive); in the assay on KM12 it was 46.7 µM (inactive); with LXFL 529, 14.6 µM (inactive); with M19-MEL, 68.7 µM (inactive). Moreover, the GI50 in the assay with NCI-H226 was 45.9 µM (inactive); in the assay on NCI-H522, 18.4 µM (inactive); in the assay on OVCAR-4, 20.7 µM (inactive); with OVCAR-5, 69.2 µM (inactive); with SF-268, 11.5 µM (inactive); in the assay with SK-MEL-28, 18.3 µM (inactive). For the same compound, the GI50 was 38.5 µM (inactive) in the assay on SK-MEL-5, 18.7 µM (inactive) in the assay with SW-620, 17.3 µM (inactive) in the assay with U-251 and > 100 µM (inactive) with UACC-257.
On to `CCN1CCC(O)(c2ccc(C)cc2)C(C(=O)c2ccc(C)cc2)C1` (stereo not drawn), for which the GI50 with ACHN is 17.5 µM (inactive); in the assay with HL-60, 20.3 µM (inactive); in the assay on HOP-18 it was 22.1 µM (inactive); in the assay on KM12, 33.1 µM (inactive); in the assay on LXFL 529, 17.4 µM (inactive); with M19-MEL, > 47.3 µM (inactive). Besides, the GI50 with NCI-H226 was > 100 µM (inactive); with NCI-H522, 1.94 µM (inactive); in the assay on OVCAR-4, 21.5 µM (inactive); in the assay on OVCAR-5 it was 20.2 µM (inactive); in the assay on SF-268 it was > 53 µM (inactive); in the assay on SK-MEL-28 it was 23.9 µM (inactive). For the same compound, the GI50 in the assay with SK-MEL-5 is > 42.3 µM (inactive); with SW-620, 16.8 µM (inactive); with U-251, > 52.5 µM (inactive); in the assay on UACC-257, 19.1 µM (inactive).
For `CC(C)(C)C1CC[C@H]2c3c([nH]c4ccccc34)[C@H]3C(=O)N(c4ccc(F)cc4)C(=O)[C@H]3[C@H]2C1` (stereo partly drawn), the GI50 was 14.1 µM (inactive) with ACHN; 17.1 µM (inactive) in the assay on DMS-114; 17.1 µM (inactive) in the assay on HOP-18; 14.1 µM (inactive) in the assay with KM12; 16 µM (inactive) in the assay with LXFL 529; 17.1 µM (inactive) in the assay with M19-MEL. Besides, the GI50 in the assay on NCI-H226 is 19.1 µM (inactive); with NCI-H522, 12.4 µM (inactive); with OVCAR-4, 11.2 µM (inactive); in the assay on OVCAR-5, 28.9 µM (inactive); with SF-268 it was 13.6 µM (inactive); with SK-MEL-28 it was 23.6 µM (inactive). In addition, the GI50 in the assay on SK-MEL-5 was 18.7 µM (inactive); in the assay with SW-620 it was 17 µM (inactive); in the assay with U-251 it was 8.75 µM (inactive); in the assay on UACC-257, 22.6 µM (inactive).
For the compound `COc1ccc2c3c1O[C@]1(C)C34CCN(C)C(C2)C42C=C[C@@]1(OC)c1c(O)ccc(O)c12`, the GI50 in the assay with ACHN was > 100 µM (inactive); in the assay on DMS-114, > 100 µM (inactive); in the assay on HL-60, 17.8 µM (inactive); in the assay on HOP-18, > 100 µM (inactive); in the assay with KM12, > 100 µM (inactive); in the assay with LXFL 529, > 100 µM (inactive). Further, the GI50 in the assay on NCI-H522, in the assay on OVCAR-5, with SF-268, in the assay on SK-MEL-28, in the assay with SK-MEL-5 and with SW-620 was > 100 µM (inactive) throughout. Besides, the GI50 in the assay on U-251 and in the assay with UACC-257 was > 100 µM (inactive) in each case.
For `NC1=C(NC(=O)Cc2ccccc2F)C(=O)c2ccccc2C1=O`, the GI50 in the assay with ACHN is 76.9 µM (inactive); in the assay on DMS-114, 41.8 µM (inactive); in the assay with HL-60 it was 88.3 µM (inactive); in the assay on HOP-18 it was > 100 µM (inactive); in the assay with KM12 it was > 100 µM (inactive); with M19-MEL it was 4.5 µM (inactive). Besides, the GI50 is > 100 µM (inactive) in the assay with NCI-H226; 21.6 µM (inactive) with NCI-H522; 42 µM (inactive) with OVCAR-4; 34.6 µM (inactive) in the assay with SF-268; > 100 µM (inactive) in the assay with SK-MEL-28; 97.3 µM (inactive) with SW-620. In addition, the GI50 was 36.5 µM (inactive) in the assay with U-251 and 29.6 µM (inactive) with UACC-257.
Turning to `COc1cccc(/C=C2\N=C(Cl)OC2=O)c1O`, the GI50 in the assay on ACHN, in the assay on DMS-114, in the assay on HL-60, in the assay with HOP-18, with KM12 and with LXFL 529 was > 100 µM (inactive) each time. The GI50 in the assay with NCI-H226 was > 100 µM (inactive); with NCI-H522 it was > 100 µM (inactive); in the assay on OVCAR-4 it was > 100 µM (inactive); with OVCAR-5, > 100 µM (inactive); in the assay on SF-268 it was > 80 µM (inactive); with SK-MEL-28, > 100 µM (inactive). The GI50 was > 100 µM (inactive) in the assay with SK-MEL-5, > 66.4 µM (inactive) in the assay on SW-620, > 85.9 µM (inactive) in the assay with U-251 and > 100 µM (inactive) in the assay with UACC-257.
As for `Cc1cc(Cl)ccc1NC(=O)CC/C(CC(=O)C(C)C)=N\NC(=O)C[n+]1ccccc1`, the GI50 in the assay with ACHN, in the assay with DMS-114, in the assay with HL-60, in the assay on HOP-18, in the assay on KM12 and with LXFL 529 was > 100 µM (inactive) throughout. The GI50 in the assay on NCI-H226, in the assay with NCI-H522, in the assay with OVCAR-4, in the assay on OVCAR-5, in the assay on SF-268 and in the assay with SK-MEL-28 was > 100 µM (inactive) in each case. The GI50 in the assay with SK-MEL-5, in the assay on SW-620, with U-251 and in the assay with UACC-257 was > 100 µM (inactive) in each case.
On to `COc1cc(C2c3cc4c(cc3[C@H](OCCN(C)C)[C@@H]3COC(=O)C23)OCO4)cc(OC)c1O` (stereo partly drawn), for which the GI50 was 0.0293 µM (active) with ACHN; < 0.01 µM (active) in the assay with HL-60; 0.27 µM (active) in the assay with HOP-18; 0.69 µM (active) in the assay on KM12; 2.02 µM (inactive) in the assay with LXFL 529; 0.373 µM (active) in the assay on M19-MEL. Also, the GI50 in the assay with MDA-MB-231 is 2.62 µM (inactive); in the assay with NCI-H226, 0.0441 µM (active); in the assay on NCI-H522, 0.357 µM (active); in the assay with OVCAR-4, 1.84 µM (inactive); in the assay with OVCAR-5, 0.738 µM (active); in the assay with PC-3, 0.805 µM (active). Further, the GI50 was 0.194 µM (active) in the assay with SF-268; 1.02 µM (active) in the assay on SK-MEL-28; 0.307 µM (active) with SK-MEL-5; 0.422 µM (active) in the assay with SW-620; 0.369 µM (active) in the assay on T47D; 0.0468 µM (active) with U-251. The GI50 with UACC-257 was 1.37 µM (inactive).
In the case of `C/C(CCn1[nH]c(=O)ccc1=O)=N\N=C(N)N`, the GI50 with ACHN, with DMS-114, with HL-60, in the assay on HOP-18, in the assay with KM12 and in the assay on LXFL 529 was > 100 µM (inactive) in each case. In addition, the GI50 in the assay on M19-MEL, with NCI-H226, with OVCAR-4, in the assay with OVCAR-5, in the assay with SF-268 and with SK-MEL-28 was > 100 µM (inactive) in each case. Also, the GI50 in the assay on SK-MEL-5, in the assay with SW-620 and with UACC-257 was > 100 µM (inactive) throughout.
For the compound `Cn1c(NC(=O)NC23CC4CC(CC(C4)C2)C3)nc2ccccc21`, the GI50 was 27.5 µM (inactive) with ACHN; > 100 µM (inactive) with HL-60; 19.2 µM (inactive) in the assay on HOP-18; > 100 µM (inactive) in the assay with KM12; 86.1 µM (inactive) in the assay on LXFL 529; 57.5 µM (inactive) in the assay on M19-MEL. Moreover, the GI50 is 93.5 µM (inactive) in the assay on NCI-H226; 78.7 µM (inactive) in the assay with NCI-H522; 4.22 µM (inactive) in the assay on OVCAR-4; > 100 µM (inactive) in the assay with OVCAR-5; 28.5 µM (inactive) in the assay with SF-268; 96.4 µM (inactive) in the assay on SK-MEL-28. In addition, the GI50 in the assay with SK-MEL-5 was 91 µM (inactive); with SW-620 it was > 100 µM (inactive); in the assay on U-251 it was 48.8 µM (inactive); in the assay with UACC-257, 94.2 µM (inactive).
For the compound `O=[N+]([O-])c1ccc(C2=NN(c3ccccc3)C[N+](c3ccc(Br)cc3)=N2)cc1`, the GI50 with ACHN was > 100 µM (inactive); in the assay with HOP-18 it was > 100 µM (inactive); in the assay on KM12 it was > 100 µM (inactive); with LXFL 529, 63.5 µM (inactive); in the assay with M19-MEL it was > 100 µM (inactive); with NCI-H226 it was > 100 µM (inactive). Further, the GI50 in the assay on NCI-H522 is 38.1 µM (inactive); in the assay on OVCAR-4, > 100 µM (inactive); with OVCAR-5, > 100 µM (inactive); in the assay on SF-268, 60.5 µM (inactive); with SK-MEL-28, > 100 µM (inactive); with SK-MEL-5, > 100 µM (inactive). For the same compound, the figures for the GI50 with SW-620, in the assay with U-251 and in the assay with UACC-257 were > 100 µM (inactive), 71.3 µM (inactive) and > 100 µM (inactive), respectively.
